Structures can show the parent of a compound that is named as a salt.
Legend:
P. yoelii NS = assay: Test model II: blood schizontocidal action in infected mice, 4-day treatment; assay type: in vivo, Plasmodium yoelii ssp; conditions: for % Parasitämie: mice, daily dose 10,0 mg/kg test substance plus 0,3 mg/kg Chloroquin, s.c., 4 days, parasitaemia one day after treatment
Text: Zur Bestätigung und weiteren Differenzierung der resistenzbrechenden Wirkung wurden Mäuse nach dem in Ann. Trop. Med. Parasit., 72, 23 (1978) beschriebenen Modell (vgl. auch Exp. Parasitol. 17, 89 (1965), Anm. Trop. Med. Parasit. 69, 155 (1975) mit parasitär befallenden Erythrocyten beimpft und 1 Tag nach der Injektion an vier aufeinanderfolgenden Tagen behandelt. Einen Tag nach der Behandlung wurde die Parasitämie bestimmt.
Eperythozoon-coccoides-freie, männliche, Schweizer Albino-Mäuse, Gewicht zwischen 18 und 20 g, werden für alle Prüfungen benutzt.
Sie werden in Räumen mit kontrollierter Temperatur (22° + 2°C) in Kunststoffkäfigen zu je 5 Mäusen pro Käfig gehalten.
P. yoelii NS, gewonnen aus P. yoelii N: mäßig resistent gegenüber Chloroquin. Erhaltung durch zyklische Passage durch Anopheles stephensi und unter medikamentöser Belastung in der Maus (60 mg/kg s.c. einmal während der Passage) (für nähere Erläuterung siehe Ann. Trop. Med. Parasit., 72, 23 (1978)).
Männliche Mäuse werden intravenös mit parasität befallenden Erythrozyten (10⁷) vom P. yoelli NS Stamm beimpft. Danach werden die Tiere an vier aufeinanderfolgenden Tagen beginnend am Tag der Infektion einmal täglich behandelt. Die Verbindungen werden mit ®Tween 80 in sterilem, destilliertem Wasser gelöst oder suspendiert und subkutan verabreicht. In Fällen, in denen sich die Zubereitung einer wäßrigen Lösung als äußerst schwierig erweist, wird die Prüfsubstanz zunächst in Dimethylsulfoxid gelöst. Danach werden wäßrige Verdünnungen zum Gebrauch hergestellt. Die Parasitämie wird am Tag nach der letzten Behandlung bestimmt. Die unterdrückung der Parasiten im Vergleich zur unbehandelten Kontrolle, wird mittels Probitanalyse der log-Dosis-Wirkungskurve berechnet.
Mäuse, die mit dem chloroquin-resistenten Plasmodium yoelii ssp infiziert waren, wurden mit Chloroquin über 4 Tage subkutan behandelt, wie unter II.2 beschrieben.
Einen Tag nach der Behandlung wurde die Parasitämie bestimmt und mit der Kontrolle verglichen.
Der AEI (Activity Enhancement Index) ist der Quotient aus der ED₉₀ für Chloroquin alleine und der ED₉₀ für Zusatz von 10 mg/kg Testsubstanz.

in vivo [1] = conditions: rat, iv
Text: Das 3. Modell untersucht ebenfalls am Ganztier die Wirkung der Testsubstanz auf das Herz.
(§1) Angegeben ist jeweils, wieviel größer die Dosis der Testsubstanz sein darf als bei racemischem Verapamil, um den gleichen caridovasculären Effekt auszulösen.
(§2) Der Selektivitätsindex S der Tabelle ist das Produkt dieses Faktors mit dem AEI und beschreibt somit, um wieviel schwächer als beim racemischen Verapamil die cardiovasculären Effekte der Testsubstanz sind, wenn sie in der Resistenzbrechnung von Malariamitteln in equieffizienten Dosen eingesetzt werden.

[2] = system: Gefäßstreifen der Ratte (rat aortic strip); assay: in vitro
Text: (§3) Weiter umfaßt die Tabelle drei praxisübliche Testmodelle auf cardiovasculäre Effekte. Am Gefäßstreifen der Ratte (rat aortic strip) (1. Modell) wird die Dosis bestimmt, die zu einer 50 %igen Relaxation führt, sie ist ein Maß für die gefäßerweiternde und damit blutdrucksenkende Wirkung einer Substanz. Das 2. Modell untersucht die blutdrucksenkende Wirkung am Ganztier (Ratte), bei intravenöser Gabe).
as §1, §2

in vitro = conditions: rat, aortic strip
Text: as §3, §1, §2

in vivo [3] = conditions: rat, iv; remark: listed apart in the source
Text: as §3, §1, §2

[4] = system: humanen Erythrocyten, die mit resistenten Plasmodien (Pl. falciparum) infiziert waren; assay: Test model I: radiolabelled hypoxanthine incorporation (microdilution technique), alone and in combination with the antimalarial; assay type: cell-based; conditions: combination with Chloroquine; 1,0 = additivity, <0,5 = synergism
Text: Alle Substanzen wurden zunächst alleine und dann in Kombination mit dem Antimalaria-Mittel an humanen Erythrocyten, die mit resistenten Plasmodien (Pl. falciparum) infiziert waren, getestet. Der Einbau von radioaktiv markiertem Hypoxanthin diente als Maß für das Wachstum der Parasiten. Nach der Microdilutions-Technik (Antimicrob. Agents Chemotherapy 16,710 (1979)), wurde dabei für die erfindungsgemäßen Substanzen allein keine oder nur eine geringe Hemmung des Hypoxanthin-Einbaus gefunden. In Kombination mit einem Malariamittel wurde dagegen eine deutlich synergistische Hemmung beobachtet. Die Auswertung erfolgte über den FIC-Index (eine mathematische Repräsentation eines Isobologramms). Der Wert 1,0 bedeutet Additivität der Wirkungen, ein Wert <0,5 Synergismus. Für R-Verapamil und Chloroquin erhält man den Wert 0,56. [formula] IC₅₀ = Konzentration der Prüfsubstanz, die eine 50 %ige Hemmung der Parasiten bewirkt. [A] = gemessene IC₅₀ der Substanzu A in Gegenwart einer definierten (z.B. 500 bis 125 000 ng/ml) Menge der Substanz B. [B] = gemessene IC₅₀ der Substanz B in Gegenwart einer definierten (z.B. 500 bis 125 000 ng/ml) Menge der Substanz A. IC50A = IC₅₀ der Substanz A alleine gegeben IC50B = IC₅₀ der Substanz B alleine gegeben.
Die folgenden Werte wurden in der Kombination mit Chloroquine bestimmt.

[5] = AEI relative to S,R-Verapamil = 1
[6] = Activity Enhancement Index: ED90 of Chloroquin alone divided by ED90 with addition of 10 mg/kg test substance

SMILES | AEI (10 mg/kg) (P. yoelii NS; [5]) | AEI (10 mg/kg) (P. yoelii NS; [6]) | EKG (AV-Block) Ratte i.v. ED (in vivo [1]) | Ratten Aortenstreifen ED₅₀ [2] | selectivity ratio (in vitro) | Blutdrucksenkung ED₅₀ (in vivo [3]) | % Parasitämie (P. yoelii NS) | FIC-Index [4] | selectivity ratio (in vivo [3]) | selectivity ratio (in vivo [1])
COc1ccc(CCN(C)CCCC(C#N)(c2ccc(OC)c(OC)c2)C(C)C)cc1OC (racemic) [S,R-Verapamil, Verapamil, reference compound] | = 1 x | 2,56 | = 1 |  |  |  |  |  |  | 
COc1ccc(CCN(C)CCCC(C#N)(c2cc(OC)c(OC)c(OC)c2)C(C)C)cc1OC (single isomer, unassigned; (+)) [(+)-Gallopamil, (+)-1-(3,4-Dimethoxyphenyl)-3-methylaza-7-cyan-7-(3,4,5-trimethoxyphenyl)-8-methylnonan-hydrochlorid] | 1,7x | 4,4 | 4,6 | 12,6 | 21.6 | 3,4 | 8,6% | 0,53 |  | 
CC(C)C(C#N)(CCCNCCc1ccccc1)c1ccccc1.Cl (stereo not shown) [Noremopamil, 1,7-Bis-(phenyl)-3-aza-7-cyano-8-methyl-nonan-hydrochlorid] | 1,60x | 4,1 | 4,6 | 2,9 | 4.6 | 4,3 |  | 0,19 | 6.9 | 6.9
COc1ccc(CCN(C)CCC[C@](C#N)(c2ccc(OC)c(OC)c2)C(C)C)cc1OC [R-Verapamil, reference compound] | 1,6x | 4,15 | 4,6 |  | 10.2 |  | 14,2% | 0,56 |  | 
CC(C)[C@@](C#N)(CCCN(C)CCc1ccccc1)c1ccccc1 [S-Emopamil, (-)-(S)-1,7-Bis-(phenyl)-3-methylaza-7-cyano-8-methyl-nonan-hydrochlorid] | 1,8x | 4,5 | 2,15 | 7,7 | 13.5 | 2,7 | 6,7% | 0,19 |  | 

From patent EP0427747B1, “SUBSTITUTED PHENYLACETONITRILES USED TO OVERCOME RESISTANCE TO DRUGS IN ANTI-MALARIAL THERAPY” (priority 1988, dated 1990)
